Laboratory results: patent US9169241B2, “Quinolinyloxyphenylsulfonamides” (Max-Planck-Gesellschaft Zur Forderung der Wissenschaften …, priority 2009, dated 2015)

Experiments:
[1] = tested on: Hs578T; test: Matrigel outgrowth assay/branching assay; assay type: cell-based; details: Homo sapiens, Hs-578T; HS578T cell line; Table Ib; read-out: Total branching inhibition in Matrigel HS578T
Procedure, shortened: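 Step one: Matrigel (3 mg/ml) is set for 1 h at 37° C. Step two: 5000 cells per well go on in medium with compound (0.78–3.125 μM) or DMSO. Step three: images at 48, 72 and 96 h are scored for complete loss of branching.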

[2] = tested on: Hs578T; test: Wound healing migration assay; assay type: cell-based; details: Homo sapiens, Hs-578T; HS578T cell line; Table Ib
Procedure, shortened: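 Cells seeded at 150000/24 well, grown to monolayer overnight, scratched with a pipette tip, then treated with compound at 12.5, 6.25 or 3.125 μM versus DMSO. Stopped by crystal violet fixation at 48-72 h once control wounds closed; IC50 taken as 50% wound size between t0 and t48 or t72.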

[3] = tested on: Hs578T; test: Cell vitality assay (ATP assay, CellTiter-Glo); assay type: cell-based; details: Homo sapiens, Hs-578T; HS578T cell line, 72 h; Table Ib; read-out: IC50 ATP-Assay HS578T after 72 h
Procedure, shortened: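 1000 cells/well incubated 72 h with compound at 12.5 down to 0.195 μM (twofold steps) or DMSO control. Viability measured as cellular ATP by CellTiter-Glo luminescence; IC50 taken as the concentration giving 50% of the DMSO-control ATP level.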

[4] = biological target: T1, wild type AXL (wtAXL) receptor tyrosine kinase (Homo sapiens, UniProt P30530); test: NIH-3T3-AXL cellular kinase assay (pY-AXL-ELISA); assay type: cell-based; details: NIH-3T3-AXL (clone 22) cells, serum depleted, compounds 1 h; Table Ia
T1 construct: WtAXL cDNA was cloned into vector pLXSN(ESK) and transfected into Phoenix E packaging cells; expressed in transfected cells; host or cells: NIH3T3 N7 (mouse fibroblasts), retrovirally infected, clone 22
T1 sequence (P30530 26-894): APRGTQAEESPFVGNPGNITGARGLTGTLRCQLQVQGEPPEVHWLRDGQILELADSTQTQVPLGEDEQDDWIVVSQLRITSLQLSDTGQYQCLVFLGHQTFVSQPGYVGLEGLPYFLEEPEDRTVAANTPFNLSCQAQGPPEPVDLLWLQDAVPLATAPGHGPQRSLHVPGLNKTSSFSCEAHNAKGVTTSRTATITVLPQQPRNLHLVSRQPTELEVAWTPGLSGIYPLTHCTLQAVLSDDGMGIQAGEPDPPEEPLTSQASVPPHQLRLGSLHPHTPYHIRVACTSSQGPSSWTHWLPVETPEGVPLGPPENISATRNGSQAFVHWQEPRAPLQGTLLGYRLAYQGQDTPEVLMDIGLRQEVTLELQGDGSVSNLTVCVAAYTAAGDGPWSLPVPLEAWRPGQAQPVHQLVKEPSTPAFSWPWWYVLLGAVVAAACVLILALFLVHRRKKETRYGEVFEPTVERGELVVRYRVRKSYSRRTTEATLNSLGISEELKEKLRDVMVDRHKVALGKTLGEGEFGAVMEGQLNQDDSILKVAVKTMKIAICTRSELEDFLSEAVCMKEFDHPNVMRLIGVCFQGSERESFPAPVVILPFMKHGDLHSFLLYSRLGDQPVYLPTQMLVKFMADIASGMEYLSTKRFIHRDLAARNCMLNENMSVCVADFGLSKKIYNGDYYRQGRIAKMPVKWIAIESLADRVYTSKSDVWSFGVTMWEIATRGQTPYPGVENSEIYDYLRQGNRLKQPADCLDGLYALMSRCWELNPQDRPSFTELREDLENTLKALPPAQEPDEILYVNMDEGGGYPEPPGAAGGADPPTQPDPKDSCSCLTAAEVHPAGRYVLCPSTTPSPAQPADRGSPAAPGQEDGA
Protocol: WtAXL cDNA was cloned into vector pLXSN(ESK) and transfected into Phoenix E packaging cells. The viral supernatant was collected and used to infect target cells NIH3T3 N7. Monoclonal NIH3T3-AXL cell lines stably expressing wtAXL were generated by selecting retrovirally infected cells in medium containing puromycin (2 μg/ml) and subsequent clonal separation.
Serial dilutions of compounds were added, and the cells were further incubated for 1 h. Cells were washed with PBS and lysed on ice in 500 μl lysis buffer (50 mM HEPES (pH 7.5), 150 mM NaCl, 1 mM EGTA, 10% Glycerol, 1% Triton X-100, 100 mM NaF, 10 mM Na4P2O7.10H2O, 1 mM Na3VO4, 1 mM phenylmethylsulfonyl fluoride, and […]) for 15 min. The cell lysate were used for phosphotyrosine AXL enzyme-linked immunosorbant assay (pY-AXL-ELISA). […] Subsequently 96-well plates were blocked with PBS-0.05% Tween®20+10% FBS for 4 h at 37° C. Plates were washed 5 times with PBS-0.05% Tween®20 and 95 μl of lysate was transferred per well for incubation overnight at 4° C. Plates were washed 5 times with PBS-0.05% Tween®20 (Sigma, Steinheim, Germany). For detection of phosphorylated tyrosine we used homemade biotynilated 4G10-antibody (0.5 μg/ml) in PBS-0.05% Tween®20+10% FBS (100 μl/well) and incubated the 96-well plate for 2 h at room temperature. The anti-phosphotyrosine mouse monoclonal antibody 4G10 was biotynilated with Sulfo-NHS®-Biotin according to the suppliers protocol (Pierce, Rockford, Ill., USA) and purified by Mirco Bio-Spin 6 Chromatograpy Columns (BIO RAD Laboratories, Inc., Hercules, Calif., USA) using PBS as diluent. Plates were washed 5 times with PBS-0.05% Tween®20. For biding to biotin Alkaline Phosphatase Conjugated Strepavidin SA110 (Millipore, Billerica, Mass., USA) (1:4000) was used in PBS-0.05% Tween20+10% FBS (100 μl/well) and incubated for 30 min at room temperature. Plates were washed 5 times with PBS-0.05% Tween20. For fluorimetric detection of alkaline phosphatase AttoPhos Substrate Set (Roche diagnostics GmbH, Mannheim, Germany) was used (100 μl/well). The fluorimetric signal was quantified after 90 min at 430/560 nm wavelength using a TECAN Ultra Evolution plate reader (Tecan Deutschland GmbH, Crailsheim, Germany).

melting point [°C] | IC50 [2] [µM] | IC50 [4] [µM] | SMILES | IC50 [1] [µM] | IC50 [3] [µM]
130 to 132 | ≤ 12.5 | < 0.5 | COc1cc2c(Oc3ccc(NS(=O)(=O)c4ccc(Cl)s4)cc3F)ccnc2cc1OCCCN(C)C [Example 182, 5-Chloro-thiophene-2-sulfonic acid {4-[7-(3-dimethylamino-propoxy)-6-methoxy-quinolin-4-yloxy]-3-fluoro-phenyl}-amide] | 10 to 25 | ≤ 12.5
120 to 122 | ≤ 12.5 | 0.5 to 3 | COc1cc2c(Oc3ccc(NS(=O)(=O)c4csc5ccccc45)cc3F)ccnc2cc1OCCCN1CCCCC1C (centres unmarked) [Example 147, Benzo[b]thiophene-3-sulfonic acid (3-fluoro-4-{6-methoxy-7-[3-(2-methyl-piperidin-1-yl)-propoxy]-quinolin-4-yloxy}-phenyl)-amide] | ≤ 10 | ≤ 12.5
150 to 152 | ≤ 12.5 | < 0.5 | COc1cc2c(Oc3ccc(NS(=O)(=O)c4cc(Cl)ccc4Cl)cc3F)ccnc2cc1OCCCN(C)C [Example 180, 2,5-Dichloro-N-{4-[7-(3-dimethylamino-propoxy)-6-methoxy-quinolin-4-yloxy]-3-fluoro-phenyl}-benzenesulfonamide] | ≤ 10 | ≤ 12.5
111 to 113 | ≤ 12.5 | 0.5 to 3 | COc1cc2c(Oc3cccc(NS(=O)(=O)c4cc(Cl)ccc4Cl)c3)ccnc2cc1OCCCN1CCN(C)CC1 [Example 127, 2,5-Dichloro-N-(3-{6-methoxy-7-[3-(4-methyl-piperazin-1-yl)-propoxy]-quinolin-4-yloxy}-phenyl)-benzenesulfonamide] | ≤ 10 | ≤ 12.5
91 to 93 | ≤ 12.5 | 0.5 to 3 | COc1cc2c(Oc3cccc(NS(=O)(=O)c4csc5ccccc45)c3)ccnc2cc1OCCCN1CCN(C)CC1 [Example 136, Benzo[b]thiophene-3-sulfonic acid (3-{6-methoxy-7-[3-(4-methyl-piperazin-1-yl)-propoxy]-quinolin-4-yloxy}-phenyl)-amide] | ≤ 10 | ≤ 12.5
223 to 224 | 12.5 to 50 | 0.5 to 3 | COc1cc2c(Oc3ccc(Cl)c(NS(=O)(=O)c4cc(Cl)ccc4Cl)c3)ccnc2cc1OCCCN1CCC(C)CC1 [Example 197, 2,5-Dichloro-N-(2-chloro-5-{6-methoxy-7-[3-(4-methyl-piperidin-1-yl)-propoxy]-quinolin-4-yloxy}-phenyl)-benzenesulfonamide] | 10 to 25 | 12.5 to 50
123 to 124 | ≤ 12.5 | < 0.5 | COc1cc2c(Oc3ccc(NS(=O)(=O)c4ccc(Cl)c(Cl)c4)cc3F)ccnc2cc1OCCCN1CCCC(C)C1 (centres unmarked) [Example 52, 3,4-Dichloro-N-(3-fluoro-4-{6-methoxy-7-[3-(3-methyl-piperidin-1-yl)-propoxy]-quinolin-4-yloxy}-phenyl)-benzenesulfonamide] | ≤ 10 | ≤ 12.5
126 to 128 | ≤ 12.5 | < 0.5 | COc1cc2c(Oc3ccc(NS(=O)(=O)c4cc(Cl)cc(Cl)c4)cc3F)ccnc2cc1OCCCN1CCCC(C)C1 (centres unmarked) [Example 53, 3,5-Dichloro-N-(3-fluoro-4-{6-methoxy-7-[3-(3-methyl-piperidin-1-yl)-propoxy]-quinolin-4-yloxy}-phenyl)-benzenesulfonamide] | 10 to 25 | ≤ 12.5
127 to 130 | ≤ 12.5 | 0.5 to 3 | COc1cc2c(Oc3cc(NS(=O)(=O)c4cc(Cl)ccc4Cl)ccc3F)ccnc2cc1OCCCN1CCC(C)CC1 [Example 191, 2,5-Dichloro-N-(4-fluoro-3-{6-methoxy-7-[3-(4-methyl-piperidin-1-yl)-propoxy]-quinolin-4-yloxy}-phenyl)-benzenesulfonamide] | 10 to 25 | ≤ 12.5
118 to 120 | ≤ 12.5 | < 0.5 | COc1cc2c(Oc3ccc(NS(=O)(=O)c4ccc(Cl)s4)cc3F)ccnc2cc1OCCCN1CCCCC1C (centres unmarked) [Example 145, 5-Chloro-thiophene-2-sulfonic acid (3-fluoro-4-{6-methoxy-7-[3-(2-methyl-piperidin-1-yl)-propoxy]-quinolin-4-yloxy}-phenyl)-amide] | 10 to 25 | ≤ 12.5
222 to 223 | 12.5 to 50 | 0.5 to 3 | COc1cc2c(Oc3ccc(NS(=O)(=O)c4cc(F)ccc4F)cc3C)ccnc2cc1OCCCN1CCC(C)CC1 [Example 171, 2,5-Difluoro-N-(4-{6-methoxy-7-[3-(4-methyl-piperidin-1-yl)-propoxy]-quinolin-4-yloxy}-3-methyl-phenyl)-benzenesulfonamide] | 10 to 25 | 12.5 to 50
98 to 101 | ≤ 12.5 | < 0.5 | COc1cc2c(Oc3ccc(NS(=O)(=O)c4csc5ccccc45)cc3Cl)ccnc2cc1OCCCN1CCN(C)CC1 [Example 117, Benzo[b]thiophene-3-sulfonic acid (3-chloro-4-{6-methoxy-7-[3-(4-methyl-piperazin-1-yl)-propoxy]-quinolin-4-yloxy}-phenyl)-amide] | 10 to 25 | ≤ 12.5
180 to 181 | 12.5 to 50 | < 0.5 | COc1cc2c(Oc3ccc(NS(=O)(=O)c4ccccc4Cl)cc3F)ccnc2cc1OCCN1CCOCC1 [Example 108, 2-Chloro-N-{3-fluoro-4-[6-methoxy-7-(2-morpholin-4-yl-ethoxy)-quinolin-4-yloxy]-phenyl}-benzenesulfonamide] | 10 to 25 | ≤ 12.5
